According to PMC6271273, “Chemo-Enzymatic Synthesis of Silybin and 2,3-Dehydrosilybin Dimers” (Molecules, 2014):
Marks after values point to notes of the source that are not given here.

What was measured:
[1] = Square wave voltammetry (in situ / ex situ) at pyrolytic graphite electrode; type: physicochemical; settings: SWV, vs. Ag/AgCl/3 M KCl, pH 7.4, n = 3; for Oxidation potential Ep1: ascribed to oxidation of C-20 OH; for Oxidation potential Ep2: oxidation of resorcinol moiety (ring A)
Protocol: The monomeric flavonolignans and their dimers were analyzed using in situ voltammetry with the working electrode (PGE: pyrolytic graphite electrode) dipped in the supporting electrolyte containing the analytes and/or ex situ voltammetric analysis (adsorptive transfer, AdT technique). For this purpose, the PGE was first dipped into a 5 µL aliquot of the studied sample. After an accumulation period (30 s), the electrode was washed with deionized water and placed in an electrochemical cell containing pure supporting electrolyte. Square-wave voltammetry (SWV) and cyclic voltammetry (CV) were performed at room temperature with a µAutolab III analyzer (EcoChemie, Utrecht, The Netherlands) in a three-electrode setup (Ag/AgCl 3M KCl electrode as a reference and a platinum wire as the auxiliary electrode). SWV parameters: frequency: 200 Hz, from 0 V to +1.5 V, concentration of tested compounds (50 µM), supporting electrolyte: Britton-Robinson buffer, pH 7.4. The flavonolignans analyzed were dissolved in methanol as a stock solution of 1 mg mL^−1 (stored in a fridge in the dark), and diluted with the supporting electrolyte and/or 0.2 M acetate buffer (pH 5) for in situ and/or ex situ voltammetry. Ex situ a.c. voltammetry (out-of-phase) was carried out with a hanging mercury drop electrode (HMDE) according to the previously published paper. In this case, the flavonolignans (50 µM) were adsorbed from 0.2 M acetate buffer (pH 5) for 30 s. For current responses and potentials (Ep), the standard deviations (S.D.) were less than ±3.55% and ±3 mV for all experiments, respectively.

[2] = DPPH radical scavenging assay; type: biochemical; settings: 33 µM test compound, n = 4, absorbance at 517 nm after 30 min
Protocol: Antiradical activity was evaluated spectrophotometrically as the ability of the tested substances to reduce the 1,1-diphenyl-2-picrylhydrazyl (DPPH) radical as described previously with minor modifications. Briefly, a solution of the tested substance (10 µL, final concentration 0–540 µM) were mixed with a freshly prepared methanolic DPPH solution (290 µL, final concentration 20 µM) in a microtiter plate well. After 30 min, absorbance at 517 nm was measured, percentages of inhibition were calculated using the negative control and for selected compounds the IC50 values were obtained from the inhibition curves.

[3] = Stability of dimers in buffers, HPLC; type: physicochemical; settings: PBS and phosphate buffers (0.2 M, pH 7.4), longer than 24 h
Protocol: The stability of the dimers in PBS buffer and phosphate buffer (0.2 M, pH 7.4) was monitored using an HPLC method. […] The chromatography was carried out in a Shimadzu Prominence UFLC system (Kyoto, Japan) consisting of a DGU-20A mobile phase degasser, two LC-20AD solvent delivery units, SIL-20ACHT cooling autosampler, CTO-10AS column oven and SPD-M20A (PDA, photodiode array detector). A Chromolith Performance RP-18e monolithic column (100 × 3 mm i.d.) and guard column (5 × 4.6 mm i.d., both Merck) were used. The PDA data were acquired in the 200–450 nm range and the 285 signal was extracted. Gradient elution: mobile phase A: 0.1% formic acid, 10% methanol in water (v/v/v); mobile phase B: 0.1% formic acid in methanol (v/v); gradient, 0–1 min, 20% B; 1–8 min, 20%–90% B; 8–9 min, 90% B, 9–10 min, 90%–20% B. The flow rate was 1.2 mL/min at 25 °C.

Oxidation potential Ep1 [1] [V] | Oxidation potential Ep2 [1] [V] | Stability during longer incubation [3] | SMILES | DPPH [% of inhibition] [2]
0.57 | 0.83 | signs of instability (decomposition) | COc1cc([C@@H]2Oc3cc([C@H]4Oc5cc(O)cc(O)c5C(=O)[C@@H]4O)ccc3O[C@H]2COC(=O)CCCCCCCCCCC(=O)OC[C@@H]2Oc3ccc([C@H]4Oc5cc(O)cc(O)c5C(=O)[C@@H]4O)cc3O[C@H]2c2ccc(O)c(OC)c2)ccc1O [Compound 4, bis(((2S,3S)-3-(4-Hydroxy-3-methoxyphenyl)-6-((2R,3R)-3,5,7-trihydroxy-4-oxochroman-2-yl)-2,3-dihydrobenzo[b][1,4]dioxin-2-yl)methyl) dodecanedioate] | 9.0 ± 3.0 ^a %
0.55 | 0.83 | signs of instability (decomposition) | COc1cc([C@H]2Oc3cc([C@H]4Oc5cc(O)cc(O)c5C(=O)[C@@H]4O)ccc3O[C@@H]2COC(=O)CCCCCCCCCCC(=O)OC[C@@H]2Oc3ccc([C@H]4Oc5cc(O)cc(O)c5C(=O)[C@@H]4O)cc3O[C@H]2c2ccc(O)c(OC)c2)ccc1O [Compound 5, 1-(((2R,3R)-3-(4-Hydroxy-3-methoxyphenyl)-6-((2R,3R)-3,5,7-trihydroxy-4-oxochroman-2-yl)-2,3-dihydrobenzo[b][1,4]dioxin-2-yl)methyl) 12-(((2S,3S)-3-(4-hydroxy-3-methoxyphenyl)-6-((2R,3R)-3,5,7-trihydroxy-4-oxochroman-2-yl)-2,3-dihydrobenzo[b][1,4]dioxin-2-yl)methyl) dodecanedioate] | 7.0 ± 2.9 ^a %
